Test [1] deals with T1, purified rat liver Golgi mannosidase II (Rattus norvegicus, UniProt P28494).
T1 construct: 15 μl of purified rat liver Golgi mannosidase II; from tissue; host or cells: rat liver
T1 sequence (P28494 1-1148): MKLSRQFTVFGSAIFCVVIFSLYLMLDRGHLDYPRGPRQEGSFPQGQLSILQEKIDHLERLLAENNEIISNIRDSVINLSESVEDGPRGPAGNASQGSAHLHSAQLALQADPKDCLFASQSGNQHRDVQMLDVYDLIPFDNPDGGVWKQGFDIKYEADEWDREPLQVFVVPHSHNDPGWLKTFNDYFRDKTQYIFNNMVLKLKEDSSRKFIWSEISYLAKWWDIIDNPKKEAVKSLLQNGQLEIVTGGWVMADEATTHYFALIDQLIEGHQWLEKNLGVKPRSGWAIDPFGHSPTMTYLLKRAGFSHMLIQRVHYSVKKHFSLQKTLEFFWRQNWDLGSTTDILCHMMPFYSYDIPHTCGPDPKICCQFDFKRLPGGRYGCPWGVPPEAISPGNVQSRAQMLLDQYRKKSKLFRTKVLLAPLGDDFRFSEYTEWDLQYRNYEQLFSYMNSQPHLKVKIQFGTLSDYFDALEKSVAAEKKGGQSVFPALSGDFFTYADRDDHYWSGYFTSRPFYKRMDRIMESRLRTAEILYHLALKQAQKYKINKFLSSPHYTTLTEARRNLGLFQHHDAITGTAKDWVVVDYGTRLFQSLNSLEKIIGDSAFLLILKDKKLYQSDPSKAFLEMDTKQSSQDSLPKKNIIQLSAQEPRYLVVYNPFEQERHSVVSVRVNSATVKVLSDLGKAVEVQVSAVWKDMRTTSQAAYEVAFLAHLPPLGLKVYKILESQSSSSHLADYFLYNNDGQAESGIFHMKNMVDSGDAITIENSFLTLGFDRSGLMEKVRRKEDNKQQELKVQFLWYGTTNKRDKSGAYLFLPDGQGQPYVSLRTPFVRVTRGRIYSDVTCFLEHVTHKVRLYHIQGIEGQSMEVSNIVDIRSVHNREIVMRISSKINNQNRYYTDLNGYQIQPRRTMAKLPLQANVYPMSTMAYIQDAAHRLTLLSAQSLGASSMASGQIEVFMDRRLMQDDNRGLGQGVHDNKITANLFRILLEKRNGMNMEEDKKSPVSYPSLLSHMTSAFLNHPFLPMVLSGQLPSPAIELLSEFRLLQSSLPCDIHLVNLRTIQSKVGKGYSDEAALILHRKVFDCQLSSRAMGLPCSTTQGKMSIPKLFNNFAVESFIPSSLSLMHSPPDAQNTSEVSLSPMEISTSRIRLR
Nature of the test: Inhibition of purified Golgi mannosidase II in vitro (p-nitrophenyl mannopyranoside). In kind it is biochemical. The settings on record: pH 5.6, 60 minutes at 37° C. The method, then: The test compound swainsonine is prepared by 0.4 serial dilution of a 40 μM stock. Present in each determination is 10 μl diluted test compound, 25 μl of 10 mM paranitrophenyl mannopyranoside, 200 mM sodium acetate, pH 5.6 and 15 μl of purified rat liver Golgi mannosidase II. After incubating the reaction for 60 minutes at 37° C., the reaction is quenched with 50 μl of 0.5 M sodium carbonate. Absorption is read at […]. After subtracting the blank from positive controls and samples, the samples are normalized against the positive control mean using a variable slope, sigmoidal curve fit, with bottom=0, top=100. The signal is proportional to the amount of products from the uninhibited reaction.

Test [2] relates to granulocyte-macrophage progenitor cells (CFU-GM). As to the kind of experiment: Murine bone marrow progenitor cell assay in methylcellulose, CFU-GM. The class given is cell-based, C57BL/6 mouse. The settings on record: FIG. 11. The method, then: The healthy and GD0039 treated mice were euthanized by CO2 asphyxiation. Bone marrow (BM) cell suspensions were prepared under sterile conditions by flushing both femurs and tibiae with IMDM/FBS using a 26 gauge needle. Single cell suspensions were made up to 10.0 ml IMDM/FBS. The concentration of nucleated cells in each suspension was determined by triplicate counts on a hemocytometer. A portion of the cells was further diluted in media to the appropriate concentration before plating for the progenitor assay.
Colony-forming units (CFUs) were estimated by the methylcellulose method. One milliliter suspensions, containing 2×10^5 nucleated BM cells, in 0.1 ml of IMDM and 0.9 ml MethoCult (M3330), were plated in triplicate in 35 mm tissue culture dishes. Swainsonine hydrochloride or swainsonine were added to certain plates, in 0.1 ml of IMDM at concentrations of 30 μg/ml and 3 μg/ml, which gave final concentrations of […]. The MethoCult M3330 contains 30% FBS and 10 μg/ml erythropoietin and is designed for the growth of early erythroid progenitor cells (CFU-E), which were scored after 3 days of incubation at 37° C. in a humidified atmosphere containing 5% CO2. […] Colonies containing more than 20 cells were scored using an inverted microscope with brightfield optics and 40× or 100× magnification. […]

Turning to `Cl.O[C@H]1[C@H]2[C@H](O)CCCN2C[C@@H]1O` [swainsonine hydrochloride, (−)-(1S,2S,8R,8aR)-1,2,8-trihydroxyoctahydro-indolizidine hydrochloride salt], the IC50 (commonly the midpoint of a concentration-inhibition curve) in test [1] was determined as 68 ± 21 nM. In addition, the “effect on granulocyte-macrophage progenitor cells in vitro” value in test [2] is on record as “stimulate”.

The record behind these values is patent publication US6395745B1, “Alkaloid halide salts of swainsonine and methods of use” (priority 1997, dated 2002).
